Results reported in ChEMBL document CHEMBL1201862, “PubChem BioAssay data set” (2004).
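Assay format: 96-well plates, 48-hour exposure. Here, GI50 denotes the concentration required for 50% inhibition of growth.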 The source made the active and inactive calls. No stated cut-off is given here; in the data, active = GI50 up to about 1.1 µM and inactive = higher.

Key:
Assay in all cases: growth of human tumour cells (NCI), 48 h
BT-549 = system: BT-549
DLD-1 = system: DLD-1
DMS-273 = system: DMS-273
M19-MEL = system: M19-MEL
HOP-18 = system: HOP-18
KM-20L2 = system: KM-20L2
DMS-114 = system: DMS-114
SNB-78 = system: SNB-78
RXF 631 = system: RXF 631

| SMILES | GI50 (BT-549) | GI50 (DLD-1) | GI50 (DMS-273) | GI50 (M19-MEL) | GI50 (KM-20L2) | GI50 (SNB-78) | also measured |
| --- | --- | --- | --- | --- | --- | --- | --- |
| CC(C)(C)c1ccc(O)c(CN(Cc2c(O)ccc3ccccc23)C2CCCCC2)c1 | 19.6 µM (inactive) | – | – | – | – | – | – |
| Cc1nc2c(O)nc3ccccc3c2o1 | > 100 µM (inactive) | – | – | – | – | – | – |
| CCN(CC)CC[n+]1ccc2c(C)c3[nH]c4ccccc4c3c(C)c2c1 | 1.3 µM (inactive) | 1.87 µM (inactive) | 0.338 µM (active) | – | – | – | – |
| N#CC(c1ccc(O)cc1)N1CCN(C(C#N)c2ccc(O)cc2)CC1 (configuration not stated) | > 72.3 µM (inactive) | – | – | – | – | – | – |
| CC1=C(C)CC2C(=O)N(c3cc(C(C)(C)C)ccc3C(C)(C)C)C(=O)C2C1 (configuration not stated) | 24.7 µM (inactive) | – | – | – | – | – | – |
| CCOC(=O)C(NC(=O)OC(C)(C)C)C(=O)OCC | > 100 µM (inactive) | – | – | – | – | – | – |
| Cc1ccc2c(CC(=O)O)cc(=O)oc2c1 | – | > 100 µM (inactive) | 37.2 µM (inactive) | > 100 µM (inactive) | > 100 µM (inactive) | – | GI50 (HOP-18): > 100 µM (inactive); GI50 (DMS-114): > 100 µM (inactive) |
| CCN(CC)/[N+]([O-])=N/OCC(C)O (configuration not stated) | – | – | > 100 µM (inactive) | > 100 µM (inactive) | – | > 100 µM (inactive) | GI50 (RXF 631): > 100 µM (inactive); GI50 (DMS-114): > 100 µM (inactive) |
| Oc1ccc(I)c2cccnc12 | – | 3.99 µM (inactive) | 2.04 µM (inactive) | 14.4 µM (inactive) | 50.4 µM (inactive) | 56.9 µM (inactive) | GI50 (HOP-18): 8.07 µM (inactive) |
| CCOC(=O)Nn1c(CC#N)nnc1Cc1ccccc1 | > 100 µM (inactive) | – | – | – | – | – | – |
| O=C1N[C@H]2c3c(Cl)sc(Cl)c3/C(=N/O)[C@H]2O1 | > 100 µM (inactive) | – | – | – | – | – | – |
| CC(/C=C/c1ccccc1)=N\N=C(C)\C=C\c1ccccc1 | – | > 100 µM (inactive) | > 100 µM (inactive) | > 100 µM (inactive) | > 100 µM (inactive) | > 100 µM (inactive) | – |
| CN(C)Cc1cc(/N=N/c2ccccc2Cl)cc(CN(C)C)c1O | 53.1 µM (inactive) | – | – | – | – | – | – |
| COC(=O)/C(=N\NC(=O)c1ccccc1O)C(C#N)c1ccccc1 (configuration not stated) | – | 24 µM (inactive) | 19 µM (inactive) | 30 µM (inactive) | > 50 µM (inactive) | 23.4 µM (inactive) | GI50 (DMS-114): 15.9 µM (inactive) |
| O=C(N/C(=C\c1cc(Cl)ccc1Cl)c1nc2ccccc2[nH]1)c1ccccc1 | – | 17.1 µM (inactive) | – | 30.5 µM (inactive) | 34 µM (inactive) | 45.4 µM (inactive) | GI50 (RXF 631): 22.3 µM (inactive); GI50 (DMS-114): 35.3 µM (inactive) |
| CN1Cc2ccccc2S(=O)(=O)n2cccc2C1=O | > 100 µM (inactive) | – | – | – | – | – | – |
| CCOC(=O)c1c(N2CCCC2)[nH]c(=O)c(C(c2c(O)c(C(=O)OCC)c(N3CCCC3)[nH]c2=O)C(C)C)c1O | 32.4 µM (inactive) | – | – | – | – | – | – |
| COc1cc(OC)c(OC)cc1/C=N/NC(=O)N/N=C/c1cc(OC)c(OC)cc1OC | – | – | > 100 µM (inactive) | > 100 µM (inactive) | > 100 µM (inactive) | > 100 µM (inactive) | GI50 (HOP-18): > 100 µM (inactive); GI50 (DMS-114): > 100 µM (inactive) |
| CCCN(CCCC(NC(C)=O)C(=O)NCc1ccccc1)C(=O)N(C)N=O (configuration not stated) | – | > 100 µM (inactive) | > 100 µM (inactive) | > 100 µM (inactive) | > 100 µM (inactive) | > 100 µM (inactive) | GI50 (DMS-114): > 100 µM (inactive) |
| COC(=O)c1ccccc1C1CN=NC12Cc1ccc(C)cc1C2=O (configuration not stated) | 47.9 µM (inactive) | – | – | – | – | – | – |
| Cc1ccc(/C=C/C(=O)C(C)(C)CN2CCCCC2)cc1 | – | – | 3.02 µM (inactive) | 11.8 µM (inactive) | 2.86 µM (inactive) | 7.29 µM (inactive) | GI50 (RXF 631): 14.5 µM (inactive) |
| O=C1CC2(CCNCC2)C(=O)N1N1CCOCC1 | > 100 µM (inactive) | – | – | – | – | – | – |
| BrC(Br)=C1C(=C(Br)Br)C(Br)C1Br (configuration not stated) | 0.327 µM (active) | 0.573 µM (active) | 0.126 µM (active) | 0.63 µM (active) | 1.38 µM (inactive) | 1.32 µM (inactive) | GI50 (HOP-18): 2.91 µM (inactive); GI50 (DMS-114): 0.256 µM (active) |
| C/C(=C/CC[C@](C)(OC1OC(CO)C(O)C(O)C1O)[C@H]1CC[C@]2(C)[C@@H]1CC[C@@H]1[C@@]3(C)CC[C@H](O)C(C)(C)[C@@H]3C[C@H](O)[C@]12C)CO (some centres not stated) | 12.5 µM (inactive) | – | – | – | – | – | – |
| Cc1ccc(-c2nc(N/N=C/c3ccc(O)cc3)c3ccccc3n2)cc1 | 28 µM (inactive) | – | – | – | – | – | – |
| CCOc1ccc(C(c2c(O)c3ccccc3oc2=O)c2c(O)c3ccccc3oc2=O)cc1 | 67.8 µM (inactive) | – | – | – | – | – | – |
